Consider 42 molecules from BindingDB's records for doi:10.7270/Q2D21W1M (Nmmlsc, 2009).

The target in this assay is T1, GTPase KRas [1-37] (Homo sapiens, UniProt G3V5T7).
T1 construct: 1-37
Put plainly: wildtype Ras GTP binding inhibitors, SAR follow-up, biochemical, additional analogs, multiplex flow cytometry, Ki (AID 2038).

[1] abbreviates: inactive by the depositor's call.

Molecules are shown by their SMILES.

T1 sequence (G3V5T7 whole entry): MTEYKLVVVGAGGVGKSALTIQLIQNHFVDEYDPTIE

In turn, `O=C1Nc2cccc(Br)c2/C1=C1/Cc2ccccc2C1=O` had an EC50 under setting [1] of 30 µM. This counts as double-digit micromolar.
`O=C1N=c2ccccc2=C1c1[nH]c2ccccc2c1NO` [3-[3-(hydroxyamino)-1H-indol-2-yl]-2-indolone]: the EC50 was found to be 30 µM. This lies in the double-digit micromolar range.
Regarding `COC(=O)c1ccc(C(=O)C#Cc2ccccc2)cc1` [4-(1-oxo-3-phenylprop-2-ynyl)benzoic acid methyl ester], under setting [1], the EC50 is 30 µM.
`COc1cc(-c2c(C#N)c(N)n(S(=O)(=O)c3c(C(C)C)cc(C(C)C)cc3C(C)C)c2C(=O)c2ccccc2)cc(OC)c1OC` [2-azanyl-5-(phenylcarbonyl)-4-(3,4,5-trimethoxyphenyl)-1-[2,4,6-tri(propan-2-yl)phenyl]sulfonyl-pyrrole-3-carbonitrile] gave an EC50 under setting [1] of 30 µM.
On the same count and under the same terms, then `CC(=O)Oc1ccccc1C(=O)O` [2-(acetyloxy)benzoic acid], with 30 µM.
In the case of `O=C1N=c2c(F)cccc2=C1c1[nH]c2ccccc2c1NO` [7-fluoro-3-[3-(hydroxyamino)-1H-indol-2-yl]-2-indolone], the EC50 is 30 µM. This counts as double-digit micromolar.
`O=C1Nc2ccc(Br)cc2C1=C1Nc2ccccc2C1=O` displayed an EC50 of 30 µM.
As for `O=C1Nc2c(Br)cccc2/C1=C1/Cc2ccccc2C1=O` [(3E)-7-bromo-3-(3-oxo-1H-inden-2-ylidene)-1H-indol-2-one], a half-maximal effect under setting [1] (EC50) was put at 30 µM.
Consider `O=C(C#Cc1ccccc1)c1ccc(OC(F)(F)F)cc1`, for which, under setting [1], the midpoint of the response, the EC50, lay at 30 µM.
`O=C1NC(=S)N/C1=C1\C(=O)Nc2ccccc21` [(3Z)-3-(5-oxo-2-sulfanylideneimidazolidin-4-ylidene)-1H-indol-2-one] displayed an EC50 of 30 µM. That is a double-digit micromolar value.
The same measure, in the same setting: then `COc1ccc2cc([C@H](C)C(=O)O)ccc2c1` [UNM-0000306098], with 30 µM.
As to `O=C1Nc2ccccc2/C1=C1/Cc2ccccc2C1=O` [UNM-0000305763], the concentration giving a half-maximal response (EC50) under setting [1] turned out to be 30 µM.
Regarding `O=C1Nc2ccccc2/C1=C1/Nc2ccccc2C1=O` [2-[(3Z)-2-oxo-2,3-dihydro-1H-indol-3-ylidene]-2,3-dihydro-1H-indol-3-one], the EC50 is 30 µM. In other words, the double-digit micromolar range.
`COc1ccc(S(=O)(=O)n2c(N)c(C#N)c(-c3ccccc3)c2C(=O)c2ccc(Br)cc2)cc1`: the 50% effective concentration (EC50) under setting [1] stood at 30 µM.
For `COc1ccc2cc(CC(=O)O)ccc2c1` [2-(6-methoxynaphthalen-2-yl)ethanoic acid], the EC50 under setting [1] worked out at 30 µM.
`O=C1N=c2c(Cl)cccc2=C1c1[nH]c2ccccc2c1NO` [7-chloro-3-[3-(hydroxyamino)-1H-indol-2-yl]-2-indolone] gave an EC50 of 30 µM. In other words, the double-digit micromolar range.
In turn, `O=C1N=c2ccc(Br)cc2=C1c1[nH]c2ccccc2c1NO` [5-bromanyl-3-[3-(oxidanylamino)-1H-indol-2-yl]indol-2-one] came in with an EC50 of 30 µM.
Under setting [1], `COc1ccc(C(=O)C#Cc2ccccc2)cc1` [1-(4-methoxyphenyl)-3-phenyl-2-propyn-1-one] returned a concentration for a half-maximal effect (EC50) of 30 µM.
As for `O=C(C#Cc1ccccc1)c1ccccc1[N+](=O)[O-]` [UNM-0000306038], under setting [1], the midpoint of the response, the EC50, lay at 30 µM.
`C[C@@H](C(=O)O)c1cccc(Oc2ccccc2)c1` [calcium;2-(3-phenoxyphenyl)propanoic acid;hydrate] showed an EC50 of 30 µM.
Molecule `CC(C(=O)O)c1cccc(C(=O)c2ccccc2)c1` (configuration not stated) [2-(3-benzoylphenyl)propanoic acid] yielded an EC50 under setting [1] of 30 µM.
`O=C1NC(=O)/C(=C2/C(=O)Nc3ccccc32)N1` gave an EC50 of 30 µM.
The molecule `N#Cc1c(-c2ccc(Cl)cc2)c(C(=O)c2ccccc2)n(S(=O)(=O)c2ccc([N+](=O)[O-])cc2)c1N` [UNM-0000305780] displayed an EC50 under setting [1] of 30 µM.
`O=C(C#Cc1ccccc1)c1ccccc1` [UNM-0000306039] came in with an EC50 under setting [1] of 30 µM.
On the same count and under the same terms, the same measure for `CSc1ccc(/C=C2/C(C)=C(CC(=O)O)c3cc(F)ccc32)cc1` [{6-Fluoro-2-methyl-3-[1-(4-methylsulfanyl-phenyl)-meth-(E)-ylidene]-3H-inden-1-yl}-acetic acid]: 30 µM.
`O=C1Nc2c(Cl)cccc2C1=C1Nc2ccccc2C1=O`: a half-maximal response (EC50) required 30 µM. This counts as double-digit micromolar.
With `O=[N+]([O-])c1ccc(C#Cc2ccccc2)cc1`, the EC50 under setting [1] is 30 µM.
`O=C(C#Cc1ccccc1)c1ccc([N+](=O)[O-])cc1` [1-(4-nitrophenyl)-3-phenyl-2-propyn-1-one] displayed an EC50 under setting [1] of 30 µM. That is a double-digit micromolar value.
`COc1ccc(S(=O)(=O)n2c(N)c(C#N)c(-c3cc(Br)c(OC)c(OC)c3)c2C(=O)c2ccccc2)cc1` [UNM-0000305782] displayed an EC50 under setting [1] of 30 µM.
As to `COc1ccc(-c2c(C#N)c(N)n(S(C)(=O)=O)c2C(=O)c2ccccc2)cc1Br` [2-azanyl-4-(3-bromanyl-4-methoxy-phenyl)-1-methylsulfonyl-5-(phenylcarbonyl)pyrrole-3-carbonitrile], under setting [1], the EC50 came to 30 µM. This lies in the double-digit micromolar range.
Same read-out and setting: the same measure for `CC(C)Cc1ccc([C@H](C)C(=O)O)cc1` [(S)-2-(4-Isobutyl-phenyl)-propionic acid]: 30 µM; for `O=C(C#Cc1ccccc1)c1ccc(F)cc1` [UNM-0000306059]: 31 µM.
Molecule `O=C(C#Cc1ccccc1)c1ccc(Cl)cc1` [UNM-0000306055] had an EC50 under setting [1] of 30 µM.
On the same count and under the same terms, the same measure for `COc1ccc(S(=O)(=O)n2c(N)c(C#N)c(-c3cncc(Br)c3)c2C(=O)c2ccccc2)cc1` [2-amino-5-benzoyl-4-(5-bromo-3-pyridinyl)-1-(4-methoxyphenyl)sulfonyl-3-pyrrolecarbonitrile]: 30 µM; for `CCCCS(=O)(=O)n1c(N)c(C#N)c(-c2cc(OC)c(OC)c(OC)c2)c1C(=O)c1ccccc1` [2-amino-5-benzoyl-1-butylsulfonyl-4-(3,4,5-trimethoxyphenyl)-3-pyrrolecarbonitrile]: 30 µM.
In turn, `N#Cc1ccc(C(=O)C#Cc2ccccc2)cc1` [4-(3-phenylprop-2-ynoyl)benzenecarbonitrile] gave an EC50 under setting [1] of 30 µM.
The molecule `O=C1N=c2c(Br)cccc2=C1c1[nH]c2ccccc2c1NO` [7-bromanyl-3-[3-(oxidanylamino)-1H-indol-2-yl]indol-2-one] displayed an EC50 of 37.5 µM.
The same measure, in the same setting: then `O=C1Nc2c(Br)cccc2C1=C1Nc2ccccc2C1=O`, with 30 µM.
`O=C1Nc2c(F)cccc2C1=C1Nc2ccccc2C1=O` yielded an EC50 of 30 µM.
Take `O=C(C#Cc1ccccc1)c1cccnc1` [3-phenyl-1-pyridin-3-ylprop-2-yn-1-one]: the response under setting [1] was half-maximal at 30 µM (EC50).
As for `COc1ccc2cc([C@@H](C)C(=O)O)ccc2c1` [sodium;(2R)-2-(6-methoxy-2-naphthalenyl)propanoate], the EC50 turned out to be 3.11 µM.
The molecule `CC1=C(CC(=O)O)c2cc(F)ccc2/C1=C/c1ccc([S+](C)[O-])cc1` (configuration not stated) [UNM-0000306136] showed an EC50 under setting [1] of 30 µM.

As usually defined, the EC50 is the midpoint of the concentration-response curve. A low value points to an effect from little substance.
